This note sets out measurements from PubChem BioAssay (NCI).

Some test systems named below: EKVX NSCLC; KM20L2 colon; LXFL 529 NSCLC; MALME-3M melanoma; SF-268 CNS; SF-539 CNS; SNB-78 CNS; NCI-H23 lung.
Experiment in all cases: inhibition of tumour cell growth, NCI panel, 48 h

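All cell lines were grown in 96-well plates and treated with compound for 48 hours. The concentration for 50% growth inhibition is given as GI50. At the TGI there is no net growth.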

For the compound `COc1cc2nncc(Sc3cnnc4ccccc34)c2cc1OC`, the TGI is more than 100 µM with EKVX NSCLC; 68.3 µM with KM20L2 colon; more than 100 µM with LXFL 529 NSCLC; 32.4 µM with MALME-3M melanoma; more than 100 µM in the test on SF-268 CNS; 51.7 µM with SF-539 CNS. This compound also had a TGI in the test on SNB-78 CNS of 92.4 µM.
On to `N#CC(C#N)SCc1ccccc1`, for which the TGI was more than 100 µM with EKVX NSCLC; 63.4 µM in the test on KM20L2 colon; more than 100 µM in the test with LXFL 529 NSCLC; more than 100 µM with MALME-3M melanoma; 89.1 µM in the test with NCI-H23 lung; more than 100 µM in the test on SF-268 CNS. Further, the TGI is 13.1 µM with SF-539 CNS and more than 91.7 µM in the test with SNB-78 CNS.
Turning to `CC(C)N(C(C)C)[PH+]1O[PH+](N(C(C)C)C(C)C)O[PH+](N(C(C)C)C(C)C)O[PH+](N(C(C)C)C(C)C)O[PH+](N(C(C)C)C(C)C)O1.[C-]#[O+].[C-]#[O+].[C-]#[O+].[C-]#[O+].[C-]#[O+].[C-]#[O+].[C-]#[O+].[Cr].[Cr]` (stereo not drawn), the GI50 in the test with EKVX NSCLC, with KM20L2 colon, in the test on LXFL 529 NSCLC, with MALME-3M melanoma, in the test with NCI-H23 lung and with SF-268 CNS was more than 100 µM in each case. Besides, the GI50 in the test with SF-539 CNS and with SNB-78 CNS was more than 100 µM throughout. Also, the TGI in the test with EKVX NSCLC, with KM20L2 colon, with LXFL 529 NSCLC, with MALME-3M melanoma, with NCI-H23 lung and with SF-268 CNS was more than 100 µM each time. Also, the TGI in the test with SF-539 CNS and with SNB-78 CNS was more than 100 µM in each case.
As to `CCC1(Br)C(=O)NC(=O)N(C2CC(O)C(CO)O2)C1N=[N+]=[N-]` (stereo not drawn), the TGI with EKVX NSCLC, in the test with KM20L2 colon, with LXFL 529 NSCLC, in the test with MALME-3M melanoma, in the test with NCI-H23 lung and in the test on SF-268 CNS was more than 100 µM in each case. Also, the TGI with SF-539 CNS and with SNB-78 CNS was more than 100 µM each time.
Regarding `COc1ccc([C@H]2CC(=O)N3CCCC3N2)cc1` (stereo partly drawn), the TGI with EKVX NSCLC, in the test with KM20L2 colon, with LXFL 529 NSCLC, with MALME-3M melanoma, in the test with NCI-H23 lung and with SF-268 CNS was more than 100 µM in each case. Besides, the TGI in the test with SF-539 CNS and with SNB-78 CNS was more than 100 µM in each case.
On to `Fc1cccc(Cl)c1C1SCc2nc3ccccc3n21` (stereo not drawn), for which the TGI with EKVX NSCLC is more than 100 µM; in the test with KM20L2 colon, 49.7 µM; in the test with LXFL 529 NSCLC it was more than 100 µM; in the test with MALME-3M melanoma it was 45.8 µM; in the test with NCI-H23 lung, 80.4 µM; in the test with SF-268 CNS, more than 100 µM. Besides, the TGI with SF-539 CNS turned out to be 44.4 µM; in the test on SNB-78 CNS it was 73.8 µM.
`O=C1[C@@H](c2ccc(Cl)cc2)[C@H]2CC=C[C@H]2N1O`: the TGI in the test on EKVX NSCLC, in the test with LXFL 529 NSCLC, in the test with MALME-3M melanoma, in the test with NCI-H23 lung, in the test with SF-268 CNS and with SF-539 CNS was more than 100 µM throughout. The compound further had a TGI in the test on SNB-78 CNS of more than 100 µM.
In the case of `Cc1cc(Cl)ccc1NC(=O)C(=O)Cc1nc2ccc(C(=O)c3ccccc3)cc2[nH]c1=O`, the TGI in the test on EKVX NSCLC, in the test with KM20L2 colon, in the test on LXFL 529 NSCLC, with MALME-3M melanoma, with NCI-H23 lung and in the test on SF-268 CNS was more than 100 µM each time. For the same compound, in the test on SF-539 CNS, the TGI is more than 100 µM.
With `COc1ccc(C2C(Cl)C(=O)N2n2cnc3ccccc3c2=O)cc1OC` (stereo not drawn), the TGI in the test with EKVX NSCLC, in the test with KM20L2 colon, in the test on LXFL 529 NSCLC, with MALME-3M melanoma, with NCI-H23 lung and in the test on SF-268 CNS was more than 100 µM throughout. In the test with SNB-78 CNS, the TGI is more than 100 µM.
As to `O=[N+]([O-])c1ccc(N=Nc2c(O)[nH]c3ccc([N+](=O)[O-])cc23)cc1`, the TGI with EKVX NSCLC is more than 100 µM; in the test on KM20L2 colon, 63.7 µM; in the test with LXFL 529 NSCLC it was 26.4 µM; with NCI-H23 lung it was 44.9 µM; with SF-268 CNS, 38 µM; in the test on SF-539 CNS, 33.4 µM.
Turning to `O=C(CCc1nc(=S)[nH][nH]1)NC12CC3CC(CC(C3)C1)C2`, the TGI with EKVX NSCLC, in the test with KM20L2 colon, in the test on LXFL 529 NSCLC, in the test with MALME-3M melanoma, in the test with NCI-H23 lung and with SF-539 CNS was more than 100 µM each time. In the test with SNB-78 CNS, this compound yielded a TGI of more than 100 µM.
Take `CC(C)N(C(=O)C12C3C4C1C1C2C3C41C(O)C(C)(C)C)C(C)C` (stereo not drawn): the TGI with EKVX NSCLC, in the test with KM20L2 colon, in the test on LXFL 529 NSCLC, with MALME-3M melanoma, with SF-268 CNS and with SF-539 CNS was more than 50 µM in each case. The TGI in the test on SNB-78 CNS is more than 50 µM.
On to `CC(C)c1cccc(C(C)C)c1NC(=O)C(=O)C(C(=O)c1ccccc1-c1ccccc1)C1OC(=O)c2ccccc21` (stereo not drawn), for which the TGI stood at 50.8 µM in the test on KM20L2 colon; 34.6 µM in the test with LXFL 529 NSCLC; 33.9 µM in the test on MALME-3M melanoma; 3.32 µM in the test with NCI-H23 lung; 61.5 µM with SF-268 CNS; 27.9 µM in the test with SF-539 CNS. This compound also had a TGI in the test with SNB-78 CNS of 73.2 µM.
